From ChEMBL document CHEMBL2074525, “Screening of multidrug-resistance sensitive drugs by in situ brain perfusion in P-glycoprotein-deficient mice” (Pharm Res, 2001)

Molecular target: ATP-dependent translocase ABCB1 (Mus musculus, UniProt P21447)
Assay: TP_TRANSPORTER: increase in blood-brain coefficient in mdr1a(-/-) mouse
Format: functional, organism-based
Details: in vivo

Chain of ATP-dependent translocase ABCB1 (P21447 whole entry): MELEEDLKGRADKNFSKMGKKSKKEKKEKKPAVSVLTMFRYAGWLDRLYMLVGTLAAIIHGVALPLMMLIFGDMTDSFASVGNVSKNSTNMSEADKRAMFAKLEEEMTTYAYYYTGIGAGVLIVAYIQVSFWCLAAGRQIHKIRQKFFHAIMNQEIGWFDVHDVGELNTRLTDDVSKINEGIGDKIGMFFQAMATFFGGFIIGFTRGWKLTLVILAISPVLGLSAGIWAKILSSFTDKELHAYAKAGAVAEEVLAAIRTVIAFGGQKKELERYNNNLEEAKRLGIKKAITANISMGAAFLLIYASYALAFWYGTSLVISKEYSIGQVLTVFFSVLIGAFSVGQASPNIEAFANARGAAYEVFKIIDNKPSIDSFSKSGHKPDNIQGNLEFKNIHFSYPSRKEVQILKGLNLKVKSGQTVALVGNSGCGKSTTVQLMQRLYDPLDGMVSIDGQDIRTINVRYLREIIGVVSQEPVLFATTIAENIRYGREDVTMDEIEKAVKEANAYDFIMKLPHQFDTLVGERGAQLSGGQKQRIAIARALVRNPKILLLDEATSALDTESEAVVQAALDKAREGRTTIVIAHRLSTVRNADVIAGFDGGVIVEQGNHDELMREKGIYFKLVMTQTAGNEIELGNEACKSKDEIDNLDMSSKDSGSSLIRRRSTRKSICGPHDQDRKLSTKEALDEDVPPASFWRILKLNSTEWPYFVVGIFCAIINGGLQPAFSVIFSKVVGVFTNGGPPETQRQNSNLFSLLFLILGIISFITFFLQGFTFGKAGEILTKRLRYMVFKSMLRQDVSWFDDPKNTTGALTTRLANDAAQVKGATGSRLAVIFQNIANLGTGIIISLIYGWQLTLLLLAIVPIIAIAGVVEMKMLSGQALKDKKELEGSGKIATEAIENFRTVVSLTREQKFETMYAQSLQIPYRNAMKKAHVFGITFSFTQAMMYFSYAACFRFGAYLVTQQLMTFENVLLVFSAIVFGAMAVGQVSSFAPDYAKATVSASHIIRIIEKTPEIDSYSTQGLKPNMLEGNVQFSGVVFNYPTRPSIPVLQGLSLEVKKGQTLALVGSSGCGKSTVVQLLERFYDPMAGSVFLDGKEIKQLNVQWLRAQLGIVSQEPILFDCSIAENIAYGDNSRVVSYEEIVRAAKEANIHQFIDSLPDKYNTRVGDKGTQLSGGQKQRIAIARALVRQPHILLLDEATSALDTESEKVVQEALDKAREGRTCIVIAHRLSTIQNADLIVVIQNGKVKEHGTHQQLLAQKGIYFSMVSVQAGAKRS

Activity: substrate [+]
Compound: COc1cccc2c1C(=O)c1c(O)c3c(c(O)c1C2=O)C[C@@](O)(C(=O)CO)C[C@@H]3O[C@H]1C[C@H](N)[C@H](O)[C@H](C)O1 [DOXORUBICIN]
